Test results as given in patent publication US7629318B2, “Immunosuppressant compounds, methods and uses related thereto” (priority 2002, dated 2009).
Values joined by “and” are separate entries in the source; they are usually repeats but may differ in a detail not shown here. Equal entries are not always repeated. Square brackets hold non-standard residues; d marks the D form. Peptide text beside a SMILES is read from it. * marks the point of attachment. Gly(1-amidinopiperidin-4-yl) = N=C(N)N1CCC([C@H](N)C(=O)O)CC1; Pro(3R-Ph) = O=C(O)[C@H]1NCC[C@@H]1c1ccccc1; Tic = O=C(O)[C@@H]1Cc2ccccc2CN1; Cha = N[C@@H](CC1CCCCC1)C(=O)O; NHPhenethyl = c1ccc(CCN*)cc1; Nle = CCCC[C@H](N)C(=O)O; NHBn = c1ccc(CN*)cc1

Legend:
[1] = target: T1, LG2 (DR1: DRA1*0101 DRB1*0101) cells (Homo sapiens, UniProt P01903+P01911, A100R/D57E/F55L/F60I/F76Y/I96L/L162R/M171V/P40L/Q125E/R42F/V115G/Y59C); assay: Competitive binding to MHC II proteins expressed on LG2 cells; assay type: cell-based; conditions: Cell binding IC50 (uM) LG2 (0101), LG2 (0101)
T1 construct: MHC II Proteins Expressed on PRIESS and LG2 Cells; endogenous in cells; host or cells: LG2 cells
In short: (§1)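 LG2 or Priess cells incubated 4 h at 37° C, 6% CO2 in 1% FCS with 10-fold compound dilutions (series 16 nM-1615 μM) and biotinylated-detectable indicator peptide (16 μM solution added). Lysates captured 2 h at 4° C; bound peptide detected via europium-streptavidin time-resolved fluorescence (ex 340, em 613 nm).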

[2] = Stability of compounds in rat blood plasma; assay type: in vitro ADME
In short: (§2)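 Compounds at 5 μM final in rat, mouse or human plasma, incubated at 37 °C and sampled at 0, 6 and 24 h. Proteins precipitated with acetonitrile and the supernatant dried and reconstituted in 50% acetonitrile/0.1% TFA. PBS controls run for unstable compounds.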

[3] = target: DR1 (DRA1*0101 DRB1*0101) (Homo sapiens, UniProt P01903+P01911, A100R/D57E/F55L/F60I/F76Y/I96L/L162R/M171V/P40L/Q125E/R42F/V115G/Y59C); assay: Competitive binding to MHC-II protein DR1; conditions: Protein binding IC50 (nM) 0101, 0101
In short: (§3)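 Each MHC-II allele incubated with compound 16 hours at room temperature in duplicate; controls lacked compound, or both compound and MHC-II. Complexes captured 2 h at 4 °C, bound biotinylated peptide detected via europium-streptavidin and DELFIA enhancement, time-resolved fluorescence read at ex 340/em 613 (615) nm.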

[4] = target: DR4Dw4 (DRA1*0101 DRB1*0401) (Homo sapiens, UniProt P01903+P01911, A100K/A169T/F76Y/I96L/K127E/L162R/M171V/N62H/P40V/Q125Y/R42H/S133A/S149N/S66Y/V115G/V209L/W38E); assay: Competitive binding to MHC-II protein DR4Dw4
In short: as §3

[5] = Stability of compounds in mouse blood plasma; assay type: in vitro ADME
In short: as §2

[6] = target: DR4Dw14 (DRA1*0101 DRB1*0404) (Homo sapiens, UniProt P01903+P01911, A100R/A169T/F76Y/I96L/K127E/L162R/M171V/N62H/P40V/Q125Y/R42H/S133A/S149N/S66Y/V209L/W38E); assay: Competitive binding to MHC-II protein DR4Dw14; conditions: 0404; read-out: Protein binding IC50 (nM) 0404
In short: as §3

[7] = tested on: T-cell proliferation, DR14-LN; conditions: for Immunsupressive assays DR14-LN (Max) % Inhibition: maximal inhibition; for IC50: read-out: Immunsupressive assays DR14-LN (IC50)
[8] = target: T2, Priess (DR4Dw4: DRA1*0101 DRB1*0401) cells (Homo sapiens, UniProt P01903+P01911, A100K/A169T/F76Y/I96L/K127E/L162R/M171V/N62H/P40V/Q125Y/R42H/S133A/S149N/S66Y/V115G/V209L/W38E); assay: Competitive binding to MHC II proteins expressed on Priess cells; assay type: cell-based
T2 construct: MHC II Proteins Expressed on PRIESS and LG2 Cells; endogenous in cells; host or cells: Priess cells
In short: as §1

[9] = Stability of compounds in human blood plasma; assay type: in vitro ADME
In short: as §2

Row | Structure (SMILES) | IC50 [1] | Stability (Arbitrary units) Rat 6 h [2] [Arbitrary units] | Stability (Arbitrary units) Rat 24 h [2] [Arbitrary units] | IC50 [3] [nM] | IC50 [4] [µM] | Stability (Arbitrary units) Mouse 6 h [5] [Arbitrary units] | Stability (Arbitrary units) Mouse 24 h [5] [Arbitrary units] | IC50 [6] [nM] | Immunsupressive assays DR14-LN (Max) % Inhibition [7] [%] | IC50 [7] [µM] | IC50 [8] [µM] | Stability (Arbitrary units) Human 6 h [9] [Arbitrary units] | Stability (Arbitrary units) Human 24 h [9] [Arbitrary units] | stability (arbitrary units) in rat plasma ([2]; after 24 hours, compared to the Arg-containing equivalent)
1 | CCCC[C@H](NC(=O)[C@@H]1Cc2ccccc2CN1C(=O)[C@@H](NC(=O)[C@H](CC1CCCCC1)NC(C)=O)C1CCN(C(=N)N)CC1)C(=O)NCc1ccccc1 [Compound P68, Ac-Cha-Gpg-Tic-Nle-N(H)Bn] (Ac-[Cha][Gly(1-amidinopiperidin-4-yl)][Tic][Nle]-NHBn) | 7.2 µM | 7 | 0 | 600 | 2.1 | 49 | 13 | 2000 | 105 | 17 | 12 | 85 | 39 | 
2 | CCCC[C@H](NC(=O)[C@@H]1Cc2ccccc2CN1C(=O)[C@@H](NC(=O)[C@H](CC1CCCCC1)NC(C)=O)C1CCN(C(=N)N)CC1)C(=O)NCCc1ccccc1 [Compound P69, Ac-Cha-Gpg-Tic-Nle-N(H)CH2CH2Ph] (Ac-[Cha][Gly(1-amidinopiperidin-4-yl)][Tic][Nle]-NHPhenethyl) | 6.2 µM and 8.2 µM | 41 | 42 | 690 | 3.6 | 115 | 85 | 4500 | 107 | 23 | 11 | 105 | 93 | improved stability
3 | CSCC[C@H](NC(=O)[C@@H]1Cc2ccccc2CN1C(=O)[C@H](CCCNC(=N)N)NC(=O)[C@H](CC1CCCCC1)NC(C)=O)C(=O)N1CC[C@H](c2ccccc2)[C@H]1C(N)=O [Compound P31, Ac-Cha-Arg-Tic-Met-βPhPro-NH2] (Ac-[Cha]R[Tic]M[Pro(3R-Ph)]-NH2) | 8.5 µM | 42 | 5 | 290 | 0.28 | 86 | 56 | 850 | 89 | 98 | 3.7 | 93 | 86 | 
